Our source for the IC50 values is US10577378B2, “EIF4A-inhibiting compounds and methods related thereto” (eFFECTOR Therapeutics, Inc., priority 2015, dated 2020).

The test system of this assay is MDA-MB-231 human breast cancer cells. Description: Cell proliferation assay (CellTiter-Glo, 72 hours treatment). Type of assay: cell-based. To be noted: MDA-MB-231 cells, 72 hours at 37° C., CellTiter-Glo, read-out: MDA-MB-231 cell proliferation assay (IC50). The procedure, abridged:
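MDA-MB-231 cells seeded at 2,500 cells/well, treated next day with compound or DMSO vehicle for 72 h at 37 °C. Proliferation read by CellTiter-Glo; IC50 from sigmoidal non-linear regression, binned as +++ (<100 nM), ++ (100–1000 nM), + (>1000 nM).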

Each structure is given as a SMILES string. Structures can show the parent of a compound that is named as a salt. Where two headings read alike, the source gives them in different places.

For `COc1cncc2c1[C@]1(O)[C@H](O)[C@H](CN3[C@@H]4CCC[C@H]3CC4)[C@@H](c3ccccc3)[C@]1(c1ccc(C#N)cc1)O2` (single isomer, unassigned) [268F], for the setting “Homo sapiens”, the IC50 was 100 to 1000 nM.

For `COc1cncc2c1[C@]1(O)[C@H](O)[C@H](CN(C)C)[C@@H](c3ccccc3)[C@]1(c1ccc(Cl)cc1)O2` (single isomer, unassigned) [272F], for the setting “Homo sapiens”, the IC50 is under 100 nM. Regarding `COc1cncc2c1[C@]1(O)[C@H](O)[C@H](CN3CC4CC(C3)O4)[C@@H](c3ccccc3)[C@]1(c1ccc(C#N)cc1)O2` (single isomer, unassigned) [274F], where the note is “Homo sapiens”, the IC50 is 100 to 1000 nM. On the same count and under the same terms, to `COc1cncc2c1[C@]1(O)[C@H](O)[C@H](CN3CCC(F)(F)C3)[C@@H](c3ccccc3)[C@]1(c1ccc(C#N)cc1)O2` (single isomer, unassigned) [280F] belongs 100 to 1000 nM; to `COc1cncc2c1[C@]1(O)[C@H](O)[C@H](CN3CCOCC3)[C@@H](c3ccccc3)[C@]1(c1ccc(C(F)(F)F)cc1)O2` (single isomer, unassigned) [282F], 100 to 1000 nM; to `COc1cncc2c1[C@]1(O)[C@H](O)C(CN3CCN(C)CC3)[C@@H](c3ccccc3)[C@]1(c1ccc(C(F)(F)F)cc1)O2` (single isomer, unassigned) [284F], 100 to 1000 nM. With `COc1cncc2c1[C@]1(O)[C@H](O)[C@H](CNCC(F)F)[C@@H](c3ccccc3)[C@]1(c1ccc(C(F)(F)F)cc1)O2` (single isomer, unassigned) [286F], the IC50 (Homo sapiens) was in the range of 100 to 1000 nM.

Turning to `COc1cncc2c1[C@]1(O)[C@H](O)[C@H](CNC(C)(C)C)[C@@H](c3ccccc3)[C@]1(c1ccc(C#N)cc1)O2` (single isomer, unassigned) [290F], where the note is “Homo sapiens”, the IC50 fell in the range of 100 to 1000 nM. `CS(=O)(=O)[C@H]1[C@@H](O)[C@@]2(O)c3ncc(C#N)cc3O[C@@]2(c2ccc(C#N)cc2)[C@@H]1c1ccccc1` [86F, (5aR,6S,7R,8S,8aS)-5a-(4-cyanophenyl)-8,8a-dihydroxy-7-(methylsulfonyl)-6-phenyl-5a,7,8,8a-tetrahydro-6H-cyclopenta[4,5]furo[3,2-b]pyridine-3-carbonitrile]: where the note is “Homo sapiens”, the IC50 was over 1000 nM.

For the compound `CN(C)C[C@H]1[C@@H](O)[C@@]2(O)c3ncc(Cl)cc3O[C@@]2(c2ccc(C#N)cc2)[C@@H]1c1ccccc1` [104F, 4-((5aR,6S,7S,8R,8aS)-3-chloro-7-((dimethylamino)methyl)-8,8a-dihydroxy-6-phenyl-6,7,8,8a-tetrahydro-5aH-cyclopenta[4,5]furo[3,2-b]pyridin-5a-yl)benzonitrile], the IC50 (Homo sapiens) fell in the range of 100 to 1000 nM. Regarding `CN(C)C[C@H]1[C@@H](O)[C@@]2(O)c3ncc(C#N)cc3O[C@@]2(c2ccc(C#N)cc2)[C@@H]1c1ccccc1` [105F], the IC50 was over 1000 nM. For `COCCNC[C@H]1[C@@H](O)[C@@]2(O)c3c(OC)cncc3O[C@@]2(c2ccc(C#N)cc2)[C@@H]1c1ccccc1` [263F, 4-((4bS,5R,6S,7S,7aR)-4b,5-dihydroxy-4-methoxy-6-(((2-methoxyethyl)amino)methyl)-7-phenyl-4b,5,6,7-tetrahydro-7aH-cyclopenta[4,5]furo[2,3-c]pyridin-7a-yl)benzonitrile hydrochloride], the IC50 (Homo sapiens) was under 100 nM. Turning to `COc1cncc2c1[C@]1(O)[C@H](O)[C@H](CN(C)Cc3cccnc3)[C@@H](c3ccccc3)[C@]1(c1ccc(C#N)cc1)O2` [278F, 4-((4bS,5R,6S,7S,7aR)-4b,5-dihydroxy-4-methoxy-6-((methyl(pyridin-3-ylmethyl)amino)methyl)-7-phenyl-4b,5,6,7-tetrahydro-7aH-cyclopenta[4,5]furo[2,3-c]pyridin-7a-yl)benzonitrile], for the setting “Homo sapiens”, the IC50 fell in the range of 100 to 1000 nM. As to `COc1nc(C#N)cc2c1[C@]1(O)[C@H](O)[C@H](CN3CC(F)(F)C3)[C@@H](c3ccccc3)[C@]1(c1ccc(C#N)cc1)O2` [288F, (5aR,6S,7S,8R,8aS)-5a-(4-cyanophenyl)-7-((3,3-difluoroazetidin-1-yl)methyl)-8,8a-dihydroxy-1-methoxy-6-phenyl-5a,7,8,8a-tetrahydro-6H-cyclopenta[4,5]furo[3,2-c]pyridine-3-carbonitrile], the IC50 (Homo sapiens) is under 100 nM. In the case of `COc1cncc2c1[C@]1(O)[C@H](O)[C@H](CNCC(F)(F)F)[C@@H](c3ccccc3)[C@]1(c1ccc(C#N)cc1)O2` [291F, 4-((4bS,5R,6S,7S,7aR)-4b,5-dihydroxy-4-methoxy-7-phenyl-6-(((2,2,2-trifluoroethyl)amino)methyl)-4b,5,6,7-tetrahydro-7aH-cyclopenta[4,5]furo[2,3-c]pyridin-7a-yl)benzonitrile], where the note is “Homo sapiens”, the IC50 was in the range of 100 to 1000 nM.
